Experimental data: patent publication US20220202739A1, “ENDOCANNABINOID MIMETIC AND ANTI-INFLAMMATORY COMPOUND CONTAINING COMPOSITIONS, METHODS OF PREPARATION AND USES THEREOF” (priority 2019, published 2022)
Read-outs that look alike come from different tables or passages of the source.

What was measured:
Type in all cases: cell-based
[1] = tested on: MAGL; assay: Gene expression custom microarray, human skin fibroblasts (Example 1): MAGL; conditions: for fold induction at 10 µM: Skin fibroblast, read-out: MAGL↓ gene expression, fold increase or decrease vs untreated cells
From the text: (§1) Cell cultures: A human skin fibroblast cell culture (or cultures) was obtained through the Coriell Cell Repository from the National Institute on Aging Cell Repository (Camden, N.J.), or Promocell GmbH (Heidelberg, Germany). The initial culture was selected from the following cell lines: AG13066, AG11557, AG11796 or GM03651E. The cell lines were derived from donors as follows:
(§2) Experimental phase: When the appropriate quantity of cells had been grown, they were detached as described above, but at the final step were seeded into each well of one or more 6 well dishes. Each well received 2 ml of the cell suspension so they were seeded equally. The dishes were returned to the incubator until 85-95% confluency was reached.
(§3) It is at this stage that all wells were rinsed in PBS after aspirating the growth media. The compound(s) to be tested were previously mixed into a suitable solvent (e.g., DMSO or ethanol) that can be diluted to the desired concentration of test compound (10 μl) in the culture wells without exceeding maximum solvent concentrations and adversely effecting cell viability, and mixed with basal media. NOTE: Standard maximum levels of solvent are 0.1% for DMSO and 0.5% for ETOH. The concentration of each test compound is found in Tables 1 & 2.
(§4) Every 2 wells on the 6 well plate served as a biological replicate for the purposes of RNA isolation and genetic expression evaluations making each 6 well dish an n=3 for the test compound(s) contained in the media. Negative control plates (no test compound(s) and only basal media) were also generated. The plates were returned to the incubator for 24 hrs.
(§5) At the end of the 24 hr time period, the plates were removed from the incubator, the test media aspirated, and the cells rinsed with PBS. RNA isolation is performed using the BioRad Aurum Total RNA Mini Kit (Hercules, Calif.) per manufacturer's protocol; which is described, in brief, below: • Add 350 μl of lysis buffer to each well. Pipet multiple times to ensure thorough lysis. Add lysed cells to the collection tube. • Add 350 μl of 70% ETOH to the collection tube and mix thoroughly. • Pipet the generated lysate onto the spin column placed in a new 2 ml tube. Centrifuge for 30 sec between 8,000 and 10,000 g. • Place the spin column containing the now bound RNA, in a new 2 ml tube. Add 700 μl of low stringency wash solution to the spin column. Centrifuge for 30 sec between 8,000 and 10,000 g. Discard the flow through and replace spin column. • Add 80 μl of DNase I dilution to the spin column and incubate at room temperature for 15 minutes. • Add 700 μl of high stringency wash solution to the column and centrifuge for 30 sec between 8,000 and 10,000 g. Discard flow through. • Add 700 μl of low stringency wash solution to the column and centrifuge for 60 sec between 8,000 and 10,000 g. Discard flow through. • Centrifuge for 2 minutes to remove residual wash solution. • Transfer spin column to new 1.5 ml collection tube and add 80 μl of elution solution to the column. Allow 1 minute for saturation of the membrane and then centrifuge for 2 minutes to complete the RNA elution. • Quantify the quantity of RNA and store at −20 C° until use (no more than 1 month)
(§6) The genes tested were: • Cannabinoid receptor 1 (CB1(CNR1)) • Cannabinoid receptor 2 (CB2 (CNR2)) • Fatty acid amide hydrolase (FAAH) • Monoacylglycerol lipase (MGLL, i.e., MAGL) • Peroxisome proliferator-activated receptor gamma (PPARG) • Nuclear factor kappa-light-chain-enhancer of activated B cells (NFκβ) • Interleukin 1 Alpha (IL1alpha) • Cyclooxygenase 1 (PTGS1, i.e., COX1) • Transient receptor potential cation channel subfamily A member 1 (TRPA1) • Transient receptor potential cation channel subfamily V member 1 (TRPV1) • Transient receptor potential cation channel subfamily M member 8 (TRPM8) • Hemoglobin Subunit Beta (HBB) REFERENCE GENE • Ribosomal Protein L13a (RPL13A) REFERENCE GENE […]

[2] = tested on: PTGS1; assay: Gene expression custom microarray, human skin fibroblasts (Example 1): PTGS1; conditions: for fold induction at 10 µM: Skin fibroblast, read-out: PTGS1↓ gene expression, fold increase or decrease vs untreated cells
From the text: as §1, §2, §3, §4, §5, §6

[3] = tested on: NFKB1; assay: Gene expression custom microarray, human skin fibroblasts (Example 1): NFKB1; conditions: for fold induction at 10 µM: Skin fibroblast, read-out: NFKB1↓ gene expression, fold increase or decrease vs untreated cells
From the text: as §1, §2
as §3, with “ETOH.” for “ETOH. The concentration of each test compound is found in Tables 1 & 2.”
as §4, §5
(§7) The genes tested were: • Cannabinoid receptor 1 (CB1(CNR1)) • Cannabinoid receptor 2 (CB2 (CNR2)) • Fatty acid amide hydrolase (FAAH) • Monoacylglycerol lipase (MGLL, i.e., MAGL) • Peroxisome proliferator-activated receptor gamma (PPARG) • Nuclear factor kappa-light-chain-enhancer of activated B cells (NFκβ) • Interleukin 1 Alpha (IL1alpha) • Cyclooxygenase 1 (PTGS1, i.e., COX1) • Transient receptor potential cation channel subfamily A member 1 (TRPA1) • Transient receptor potential cation channel subfamily V member 1 (TRPV1) • Transient receptor potential cation channel subfamily M member 8 (TRPM8) • Hemoglobin Subunit Beta (HBB) REFERENCE GENE • Ribosomal Protein L13a (RPL13A) REFERENCE GENE

[4] = tested on: PPARG; assay: Gene expression custom microarray, human skin fibroblasts (Example 1): PPARG; conditions: for fold induction at 10 µM: Skin fibroblast, read-out: PPARG↑ gene expression, fold increase or decrease vs untreated cells
From the text: as §1, §2
as §3, with “ETOH.” for “ETOH. The concentration of each test compound is found in Tables 1 & 2.”
as §4, §5, §7

[5] = tested on: FAAH; assay: Gene expression custom microarray, human skin fibroblasts (Example 1): FAAH; conditions: for fold induction at 10 µM: Skin fibroblast, read-out: FAAH↓ gene expression, fold increase or decrease vs untreated cells
From the text: as §1, §2, §3, §4, §5, §6

[6] = tested on: IL1A; assay: Gene expression custom microarray, human skin fibroblasts (Example 1): IL1A; conditions: 24 hr; for IL1A↓ gene expression, fold increase or decrease vs untreated cells: 10 uM; for fold induction at 10 µM: Skin fibroblast, read-out: IL1A↓ gene expression, fold increase or decrease vs untreated cells
From the text: as §1, §2, §3, §4, §5, §6

[7] = tested on: TRPA1; assay: Gene expression custom microarray, human skin fibroblasts (Example 1): TRPA1; conditions: for fold induction at 10 µM: Skin fibroblast, read-out: TRPA1↑ gene expression, fold increase or decrease vs untreated cells
From the text: as §1, §2, §3, §4, §5, §6

[8] = tested on: CNR1; assay: Gene expression custom microarray, human skin fibroblasts (Example 1): CNR1; conditions: for fold induction at 10 µM: Skin fibroblast, read-out: CNR1↑ gene expression, fold increase or decrease vs untreated cells
From the text: as §1, §2, §3, §4, §5, §6

[9] = tested on: CNR2; assay: Gene expression custom microarray, human skin fibroblasts (Example 1): CNR2; conditions: human skin fibroblasts, 10 uM, 24 hr; for fold induction at 10 µM: Skin fibroblast, read-out: CNR2↑ gene expression, fold increase or decrease vs untreated cells
From the text: as §1, §2, §3, §4, §5, §6

[10] = tested on: TRPM8; assay: Gene expression custom microarray, human skin fibroblasts (Example 1): TRPM8; conditions: 24 hr; for TRPM8↑ gene expression, fold increase or decrease vs untreated cells: 10 uM; for fold induction at 10 µM: Skin fibroblast, read-out: TRPM8↑ gene expression, fold increase or decrease vs untreated cells
From the text: as §1, §2, §3, §4, §5, §6

[11] = tested on: TRPV1; assay: Gene expression custom microarray, human skin fibroblasts (Example 1): TRPV1; conditions: 10 uM, 24 hr
From the text: as §1, §2, §3, §4
At the end of the 24 hr time period, the plates were removed from the incubator, the test media aspirated, and the cells rinsed with PBS. RNA isolation is performed using the BioRad Aurum Total RNA Mini Kit (Hercules, Calif.) per manufacturer's protocol; which is described, in brief, below: • Add 350 μl of lysis buffer to each well. Pipet multiple times to ensure thorough lysis. Add lysed cells to the collection tube. • Add 350 μl of 70% ETOH to the collection tube and mix thoroughly. • Pipet the generated lysate onto the spin column placed in a new 2 ml tube. Centrifuge for 30 sec between 8,000 and 10,000 g. • Place the spin column containing the now bound RNA, in a new 2 ml tube. Add 700 μl of low stringency wash solution to the spin column. Centrifuge for 30 sec between 8,000 and 10,000 g. […] Allow 1 minute for saturation of the membrane and then centrifuge for 2 minutes to complete the RNA elution. • Quantify the quantity of RNA and store at −20 C° until use (no more than 1 month) […]

[12] = human skin fibroblasts, 10 uM, 24 hr

SMILES	MAGL↓ gene expression, fold increase or decrease vs untreated cells [1, 12] [fold]	PTGS1↓ gene expression, fold increase or decrease vs untreated cells [2, 12] [fold]	IL1A↓ gene expression, fold increase or decrease vs untreated cells [6] [fold]	NFKB1↓ gene expression, fold increase or decrease vs untreated cells [3, 12] [fold]	TRPA1↑ gene expression, fold increase or decrease vs untreated cells [7, 12] [fold]	CNR1↑ gene expression, fold increase or decrease vs untreated cells [8, 12] [fold]	PPARG↑ gene expression, fold increase or decrease vs untreated cells [4, 12] [fold]	CNR2↑ gene expression, fold increase or decrease vs untreated cells [9] [fold]	TRPM8↑ gene expression, fold increase or decrease vs untreated cells [10] [fold]	FAAH↓ gene expression, fold increase or decrease vs untreated cells [5, 12] [fold]	TRPV1↑ gene expression, fold increase or decrease vs untreated cells [11] [fold]	fold induction at 10 µM [6]	fold induction at 10 µM [3, 12]	fold induction at 10 µM [7, 12]	fold induction at 10 µM [9]	fold induction at 10 µM [10]	fold induction at 10 µM [5, 12]	fold induction at 10 µM [4, 12]	fold induction at 10 µM [2, 12]	fold induction at 10 µM [1, 12]	also measured
O=c1cc(-c2ccccc2)oc2cc(O)ccc12 [7-Hydroxyflavone]																					fold induction at 10 µM ([1]; Homo sapiens, 24 h): 2; fold induction at 10 µM ([2]; Homo sapiens, 24 h): 1.4; fold induction at 10 µM ([3]; Homo sapiens, 24 h): 1.1; fold induction at 10 µM ([4]; Homo sapiens, 24 h): 1.4; fold induction at 10 µM ([5]; Homo sapiens, 24 h): 1.2
C=C1CC/C=C(\C)CC[C@@H]2[C@@H]1CC2(C)C [B-Caryphyllene, B-Caryophyllene]	1	−1.5	0	−1.3	0	0	−1.6	0	5.5	−1.6	2										
COc1cc(/C=C/C(=O)CC(=O)/C=C/c2ccc(O)c(OC)c2)ccc1O [Curcumin]												4.9	1.1	4.9	55.4	47.9	1.8				fold induction at 10 µM [8, 12]: 47.4
C=CCc1ccc(O)c(OC)c1 [Eugenol]												39.2		30.1	109	152	3	1.6			fold induction at 10 µM [8, 12]: 148
C[C@@H]1C(=O)O[C@H]2[C@H](O)[C@@]34[C@H]5C[C@@H](C(C)(C)C)[C@]36[C@@H](OC(=O)[C@@H]6O)O[C@@]4(C(=O)O5)[C@@]12O [Ginkolide, Ginkolide B]	2.3	−1.3	−3.3	−1.2	1.1	1.1	−1.3	−1.2	2.1	−1.1	−2.6										
CC(C)=CCC[C@](C)(O[C@@H]1O[C@H](CO[C@@H]2O[C@@H](CO)[C@H](O)[C@H]2O)[C@@H](O)[C@H](O)[C@H]1O)[C@H]1CC[C@]2(C)[C@@H]1[C@H](O)C[C@@H]1[C@@]3(C)CC[C@H](O[C@@H]4O[C@H](CO)[C@@H](O)[C@H](O)[C@H]4O[C@@H]4O[C@H](CO)[C@@H](O)[C@H](O)[C@H]4O)C(C)(C)[C@@H]3CC[C@]12C [Ginsenoside, ginsenoside RC]													1.8						7.9		fold induction at 10 µM ([7]; Homo sapiens, 24 h): 1.5
C=CCc1ccc(O)c(-c2ccc(O)c(CC=C)c2)c1 [Honokiol]												1.8	1.6	1.4	1.3	1.8	2.3	2.3	1.5	2.7	fold induction at 10 µM ([8]; Homo sapiens, 24 h): 1.2
CC1CCC(C(C)C)C(O)C1 (stereo not shown) [Menthol, reference compound]													3.4	2.5			2	1.8	7.8	2.7	
COC(=O)c1ccccc1O [Methyl Salicylate, reference compound]													1.9	3				1.8	1.4	2.4	
CCCCCCCC/C=C\CCCCCCCC(=O)NCCO [N-Oleylethanolamide]	2.5	1.5	−1.9	1.5	1.1	−1.9	2.4	−2.4	−1.4	−1.1	−1.6										
